Experimental data from PMC6792352, “Limited Chemical Structural Diversity Found to Modulate Thyroid Hormone Receptor in the Tox21 Chemical Library” (Environmental Health Perspectives, 2019).
Where a name gives a salt, the structure may show the parent alone.

Assay: in vitro
Conditions: rat, gh3-tre-luc cells

Compound	CC50 at 24 h (AC50 (uM) modified / 1000)	also measured
COP(=S)(NC(C)C)Oc1ccc(C)cc1[N+](=O)[O-] (stereo not drawn) [Amiprofos-methyl]		CC50 at 24 h (AC50 (uM) modified / 1000, Tox21_110001=Tox21_301206, viability, 1 nM T3 present, 24 h): > 90 µM
CO[C@@H]1[C@@H](O[C@@H]2O[C@H](C)[C@@H](O[C@H]3C[C@@](C)(O)[C@@H](O)[C@H](C)O3)[C@H](N(C)C)[C@H]2O)[C@@H](CC=O)C[C@@H](C)[C@@H](O[C@H]2CC[C@H](N(C)C)[C@@H](C)O2)/C=C/C=C/C[C@@H](C)OC(=O)C[C@H]1OC(C)=O [Spiramycin II]	32.1 µM	
OCCN1CCN(CCCN2c3ccccc3Sc3ccc(Cl)cc32)CC1 [Perphenazine]	4.46 µM	
O=C1c2ccccc2C(=O)c2c1ccc(O)c2O [Alizarin]	> 50 µM	
OCC(CO)n1cnc(-c2ccc(F)cc2)c1-c1ccnc(Oc2ccccc2)n1 [SB281832]	> 90 µM	
O=c1[nH]ncc2ccccc12 [1(2H)-Phthalazinone]	> 90 µM	
CO[C@H]1C[C@@H]2CC[C@@H](C)[C@@](O)(O2)C(=O)C(=O)N2CCCC[C@H]2C(=O)O[C@H]([C@H](C)C[C@@H]2CC[C@@H](OCCO)[C@H](OC)C2)CC(=O)[C@H](C)/C=C(\C)[C@@H](O)[C@@H](OC)C(=O)[C@H](C)C[C@H](C)/C=C/C=C/C=C/1C [Everolimus]	0.00998 µM	
CCC1COC(Cn2cncn2)(c2ccc(Cl)cc2Cl)O1 (stereo not drawn) [Etaconazole]		CC50 at 24 h (AC50 (uM) modified / 1000, Tox21_110001=Tox21_301568, viability, 1 nM T3 present, 24 h): > 90 µM
CCOC(=O)CC(=O)CCl [Ethyl 4-chloro-3-oxobutanoate]		CC50 at 24 h (AC50 (uM) modified / 1000, Tox21_110001=Tox21_302063, viability, 1 nM T3 present, 24 h): 76.9 µM
Cc1ccc(N=C=O)cc1N=C=O [Toluene diisocyanate]		CC50 at 24 h (AC50 (uM) modified / 1000, Tox21_110001=Tox21_200144, viability, 1 nM T3 present, 24 h): > 90 µM
C=C(C)[C@@H]1CC=C(C)C(=O)C1 [R-(-)-Carvone]	> 90 µM	
CC1(C)CON(Cc2ccccc2Cl)C1=O [Clomazone]	> 90 µM	
CC(C)(O)C(=O)c1ccc(OCCO)cc1 [2-Hydroxy-1-[4-(2-hydroxyethoxy)phenyl]-2-methylpropan-1-one]	> 90 µM	
Nc1ncnc2c1ncn2CCOCP(=O)(O)O [Adefovir]	> 50 µM	
CCCN(CC)CC1COC2(CCC(C(C)(C)C)CC2)O1 (stereo not drawn) [Spiroxamine]	> 90 µM	
C=CN1CCCCCC1=O [1-Ethenylazepan-2-one]	> 90 µM	
CC(=O)Oc1ccc(C(C)=O)cc1 [4-Acetylphenyl acetate]	> 100 µM	
CC1=C(O)C(=O)CO1 [4-Hydroxy-5-methyl-3-furanone]	> 90 µM	
C[Si](C)O[Si](C)(C)O[Si](C)(C)O[Si](C)C	> 90 µM	
CN(C)CCn1nnnc1SCC1=C(C(=O)O)N2C(=O)[C@@H](NC(=O)Cc3csc(N)n3)[C@H]2SC1 [Cefotiam hydrochloride]	> 20 µM	
C=CC(=O)Nc1cc2c(Nc3ccc(F)c(Cl)c3)ncnc2cc1OCCCN1CCOCC1 [Canertinib]	4.7 µM	
C=C(C)C(=O)OCCC[Si](Cl)(Cl)Cl [3-(Trichlorosilyl)propyl methacrylate]	> 90 µM	
CC1(C)S[C@@H]2[C@H](N)C(=O)N2[C@H]1C(=O)O [6-Aminopenicillanic acid]	> 20 µM	

Compound	CC50 at 24 h (AC50 (uM) modified / 1000)	also measured
CC1=CC(=O)NS(=O)(=O)O1 [Acesulfame potassium]	> 90 µM	
Cc1cccc(C)c1NC(=O)CN1CCCC1 [Pyrrocaine]	> 50 µM	
C=C1C[C@]23C[C@@]1(O)CC[C@H]2[C@@]12C=C[C@H](O)[C@@](C)(C(=O)O1)[C@H]2[C@@H]3C(=O)O [Gibberellic acid]	> 90 µM	
CCCCOCC(C)O (stereo not drawn) [1-Butoxy-2-propanol]	> 90 µM	
OCC(S)CS (stereo not drawn) [Dimercaprol]	12.5 µM	
O=C(O)[C@@H](O)[C@H](O)[C@H](O)[C@@H](O)C(=O)O [Mucic acid]	> 50 µM	
Cc1ccc(S(=O)(=O)NC(=O)NC2CCCC2)cc1 [Tolpentamide]	> 50 µM	
C=CC1(C)OC(=O)N(c2cc(Cl)cc(Cl)c2)C1=O (stereo not drawn) [Vinclozolin]	> 90 µM	
CCN(CC)CCOc1ccc(Cc2ccccc2)cc1 [Tesmilifene]	10.9 µM	
CCOC(=S)SSC(=S)OCC [Bis(ethylxanthogen)]	> 90 µM	
CC1=CC[C@H]2C[C@@H]1C2(C)C [(-)-alpha-Pinene]	> 90 µM	
CON(C)C(=O)Nc1ccc(Cl)c(Cl)c1 [Linuron]	> 90 µM	
C=CCOCC(O)CCl (stereo not drawn) [Allyl 3-chloro-2-hydroxypropyl ether]	> 90 µM	
Cc1ccccc1C(=O)Nc1ccc(C(=O)N2CCCC(O)c3cc(Cl)ccc32)c(C)c1 (stereo not drawn) [Tolvaptan]	> 50 µM	
O=C(NC(=O)c1c(F)cccc1F)Nc1ccc(Cl)c(Oc2ncc(C(F)(F)F)cc2Cl)c1 [Fluazuron]	> 50 µM	
CCCC(C)(COC(N)=O)COC(=O)NC(C)C (stereo not drawn) [Carisoprodol]		CC50 at 24 h (AC50 (uM) modified / 1000, Tox21_110001=Tox21_110122, viability, 1 nM T3 present, 24 h): > 50 µM; CC50 at 24 h (AC50 (uM) modified / 1000, Tox21_110001=Tox21_200623, viability, 1 nM T3 present, 24 h): > 90 µM
O=C(Cl)c1ccccc1F [2-Fluorobenzoyl chloride]	> 90 µM	
CC(N)C(=O)OC(C)(C)Cc1ccc(Cl)cc1 (stereo not drawn) [Alaproclate]	25.5 µM	
N[C@@H](C(=O)N[C@@H]1C(=O)N2C(C(=O)O)=C(Cl)CS[C@H]12)c1ccccc1 [Cefaclor]	> 50 µM	
NNC(=O)c1ccccc1 [Benzoyl hydrazine]	> 90 µM	
CN1CC(=O)NC1=N [Creatinine]	> 50 µM	
CCOC(=O)CCC(=O)O[C@H]1[C@H](O[C@@H]2[C@@H](C)[C@H](O[C@H]3C[C@@](C)(OC)[C@@H](O)[C@H](C)O3)[C@@H](C)C(=O)O[C@H](CC)[C@@](C)(O)[C@H](O)[C@@H](C)C(=O)[C@H](C)C[C@@]2(C)O)O[C@H](C)C[C@@H]1N(C)C [Erythromycin ethylsuccinate]	> 50 µM	
ClCc1ccccc1Cl [2-Chlorobenzyl chloride]		CC50 at 24 h (AC50 (uM) modified / 1000, Tox21_110001=Tox21_201089, viability, 1 nM T3 present, 24 h): > 90 µM

Compound	CC50 at 24 h (AC50 (uM) modified / 1000)	also measured
CCCC(=O)c1cc(O)c(O)cc1O [2',4',5'-Trihydroxybutyrophenone]	> 90 µM	
CCCCN1C(=O)[C@@H]([C@H](O)C2CCCCC2)NC(=O)C12CCN(Cc1ccc(Oc3ccc(C(=O)O)cc3)cc1)CC2 [Aplaviroc hydrochloride]	77.3 µM	
N#CC(C#N)=Cc1cc(O)c(O)c(O)c1 [Tyrphostin 25]	28.5 µM	
CC(C)(N)Cc1ccc(Cl)cc1 [Chlorphentermine hydrochloride]		CC50 at 24 h (AC50 (uM) modified / 1000, Tox21_110001=Tox21_111804, viability, 1 nM T3 present, 24 h): > 50 µM
O=C1c2ccccc2C(=O)c2cc(O)ccc21 [2-Hydroxyanthraquinone]	> 90 µM	
CC(=O)c1ccccn1 [2-Acetylpyridine]	> 90 µM	
N#CC(Br)Br [Dibromoacetonitrile]		CC50 at 24 h (AC50 (uM) modified / 1000, Tox21_110001=Tox21_202319, viability, 1 nM T3 present, 24 h): > 90 µM
CCN(CC)c1ccc(N=Nc2ccc(S(=O)(=O)N(C)C)cc2)c(S(=O)(=O)NCC[n+]2ccccc2)c1 [1-[2-({[5-Diethylamino)-2-{[4-(dimethylsulfamoyl)phenyl]diazenyl}phenyl]sulfonyl}amino)ethyl]pyridinium chloride]	> 50 µM	
COC(=O)/C=C/c1ccccc1 [Methyl (E)-cinnamate]	> 90 µM	
CC(=O)OCCc1ccccc1 [2-Phenylethyl acetate]	> 90 µM	
C=CCOC(=O)C(C)(C)OC(=O)c1cc(-n2c(=O)cc(C(F)(F)F)n(C)c2=O)ccc1Cl [Butafenacil]	> 90 µM	
CCOC(=O)CC(C(C)=O)C(C)=O [Ethyl 3-acetyl-4-oxopentanoate]	> 90 µM	
CN1CCCC(CC2c3ccccc3Sc3ccccc32)C1 (stereo not drawn) [Metixene hydrochloride]	8.17 µM	
BrCC(Br)(Br)Br [1,1,1,2-Tetrabromoethane]	> 90 µM	
Cc1c(N)c(=O)n(-c2ccccc2)n1C [Ampyrone]	> 20 µM	
C/C(=C(\CCOC(=O)c1ccccc1)SS/C(CCOC(=O)c1ccccc1)=C(/C)N(C=O)Cc1cnc(C)nc1N)N(C=O)Cc1cnc(C)nc1N [Bisbentiamine]	25.6 µM	
COC(C)=O [Methyl acetate]	> 90 µM	
Cc1cc(Cl)ccc1OCC(=O)O [MCPA]	> 90 µM	
O=C(O)[C@H](O)[C@@H](O)[C@H](O[C@@H]1O[C@H](CO)[C@H](O)[C@H](O)[C@H]1O)[C@H](O)CO [Lactobionic acid]	> 20 µM	
CO/N=C(\C(=O)N[C@@H]1C(=O)N2C(C(=O)O)=C(CSC(=O)c3ccco3)CS[C@H]12)c1csc(N)n1 [Ceftiofur]	> 50 µM	
CC/C=C\C/C=C\C/C=C\CCCCCCCC(=O)O [Linolenic acid]	> 90 µM	
Cc1ccccc1C(=O)Nc1cccc(OC(C)C)c1 [Mepronil]	> 90 µM	
